Earlier results in patent US12133912B2, “Stable pharmaceutical compositions of succinylcholine chloride” (Slayback Pharma LLC., priority 2021, dated 2024).

How the values were obtained:
[1] = molecular target: T1, cholinergic receptors of the motor end plate (Homo sapiens, UniProt P02708+Q04844+Q07001); conditions: after intravenous administration
T1 construct: Succinylcholine combines with the cholinergic receptors of the motor end plate to produce depolarization; from tissue; host or cells: motor end plate of skeletal muscle, in vivo after intravenous administration
T1 sequence (P02708 21-457): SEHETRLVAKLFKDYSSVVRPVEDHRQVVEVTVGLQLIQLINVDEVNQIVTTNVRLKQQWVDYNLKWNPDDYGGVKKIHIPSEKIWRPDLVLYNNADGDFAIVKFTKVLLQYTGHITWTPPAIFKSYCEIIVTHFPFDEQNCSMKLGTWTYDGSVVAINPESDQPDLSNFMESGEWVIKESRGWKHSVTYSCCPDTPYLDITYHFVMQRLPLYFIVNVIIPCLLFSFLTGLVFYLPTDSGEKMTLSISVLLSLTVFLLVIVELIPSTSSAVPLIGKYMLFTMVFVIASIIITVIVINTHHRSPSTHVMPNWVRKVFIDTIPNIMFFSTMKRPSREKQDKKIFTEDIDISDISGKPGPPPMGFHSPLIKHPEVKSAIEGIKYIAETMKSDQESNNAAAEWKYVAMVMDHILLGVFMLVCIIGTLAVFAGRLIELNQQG
T1 sequence (Q07001 22-517): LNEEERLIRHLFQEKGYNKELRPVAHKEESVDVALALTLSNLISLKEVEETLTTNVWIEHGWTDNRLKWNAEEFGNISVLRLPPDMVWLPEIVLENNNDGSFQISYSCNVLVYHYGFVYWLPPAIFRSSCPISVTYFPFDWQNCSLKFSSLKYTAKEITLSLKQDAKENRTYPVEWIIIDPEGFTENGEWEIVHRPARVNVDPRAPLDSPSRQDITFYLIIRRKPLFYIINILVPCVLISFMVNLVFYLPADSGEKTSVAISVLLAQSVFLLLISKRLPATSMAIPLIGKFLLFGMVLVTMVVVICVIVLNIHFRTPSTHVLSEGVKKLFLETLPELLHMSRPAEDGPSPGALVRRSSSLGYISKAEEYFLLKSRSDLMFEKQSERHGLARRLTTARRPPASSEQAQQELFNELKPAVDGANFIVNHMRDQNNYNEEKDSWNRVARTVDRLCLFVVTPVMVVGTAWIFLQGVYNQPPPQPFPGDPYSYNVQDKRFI
T1 sequence (Q04844 21-493): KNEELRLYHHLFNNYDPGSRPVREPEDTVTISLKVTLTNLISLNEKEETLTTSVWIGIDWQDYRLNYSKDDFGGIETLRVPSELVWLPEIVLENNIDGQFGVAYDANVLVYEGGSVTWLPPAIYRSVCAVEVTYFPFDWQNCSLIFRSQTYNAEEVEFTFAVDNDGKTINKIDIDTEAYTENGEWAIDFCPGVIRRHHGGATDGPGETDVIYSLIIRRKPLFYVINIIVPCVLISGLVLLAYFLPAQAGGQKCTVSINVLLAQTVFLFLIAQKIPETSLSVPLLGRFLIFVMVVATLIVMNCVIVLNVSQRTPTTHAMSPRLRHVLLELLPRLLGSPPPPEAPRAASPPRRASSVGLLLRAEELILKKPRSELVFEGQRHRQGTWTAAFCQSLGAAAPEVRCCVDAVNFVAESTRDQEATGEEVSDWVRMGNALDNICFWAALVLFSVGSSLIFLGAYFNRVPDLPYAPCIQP
T1 sequence (P11230 24-501 partner): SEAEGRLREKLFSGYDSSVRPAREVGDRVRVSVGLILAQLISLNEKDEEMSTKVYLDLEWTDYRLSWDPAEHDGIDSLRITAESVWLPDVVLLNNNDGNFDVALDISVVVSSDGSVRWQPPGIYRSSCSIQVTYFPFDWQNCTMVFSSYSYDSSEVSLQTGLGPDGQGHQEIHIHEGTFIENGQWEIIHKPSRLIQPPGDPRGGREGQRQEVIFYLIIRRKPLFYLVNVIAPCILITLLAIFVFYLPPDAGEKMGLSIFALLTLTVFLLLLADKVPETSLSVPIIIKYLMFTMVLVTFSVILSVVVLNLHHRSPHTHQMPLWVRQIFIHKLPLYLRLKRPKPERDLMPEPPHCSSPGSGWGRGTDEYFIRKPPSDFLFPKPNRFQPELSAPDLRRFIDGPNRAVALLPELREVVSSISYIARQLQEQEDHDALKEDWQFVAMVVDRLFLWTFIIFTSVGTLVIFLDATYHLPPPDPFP

## C[N+](C)(C)CCOC(=O)CCC(=O)OCC[N+](C)(C)C [Succinylcholine chloride, 2,2′-[(1,4-dioxo-1,4-butanediyl)bis(oxy)]bis[N,N,Ntrimethylethanaminium] dichloride]
[1]
  Onset of flaccid paralysis: less than one
alcohol
  Solubility in alcohol: slightly soluble
ether
  Solubility in ether: practically insoluble
water
  Solubility in water: freely soluble
